Assay results reported in patent US11827677B2, “Antimicrobial peptide ID13, preparation method and use thereof” (Feed Research Institute, Chinese Academy of Agricultural …, priority 2019, dated 2023).
Where “and” joins values, the source holds several entries; their conditions need not be identical. Equal values may be shown once. Read-outs that look alike come from different tables or passages of the source. Bridge positions count the residues as written; N and C are the ends. Peptide text beside a SMILES is read from it.

Experiments:
[1] = system: Staphylococcus aureus ATCC 43300; assay: MIC by trace broth dilution method; assay type: cell-based; details: 16-18 h
Procedure: (§1) The minimum inhibition concentration (MIC) of ID13 against pathogens was measured using a trace broth dilution method. The freeze-dried powder of antimicrobial peptide ID13 obtained in Example 6 was used to prepare a solution of antimicrobial peptide ID13 with a concentration of 1280 μg/mL and a solution of vancomycin, respectively with sterile normal saline, and diluted with a two-fold ratio to a final concentration of 1.25 μg/mL. The antimicrobial peptide ID13 solutions and vancomycin solutions of different concentrations were added to a sterile 96-well cell culture plate, with 10 μL per well, three parallels for each sample, and the same amount (10 μL) of sterile saline was used as a negative control, to prepare MIC plates. Strains were cultured in MH liquid medium with shaking at 37° C. until its OD600 nm=0.4 and diluted to 1×10^5 CFU/ml. 90 μL of cell suspension was added into each well of the prepared sample well of the MIC plate and incubated at 37° C. for 16-18 h.

[2] = system: Streptococcus suis CVCC 3928; assay: MIC by trace broth dilution method; assay type: cell-based; details: 16-18 h
Procedure: as §1

[3] = system: Staphylococcus aureus CVCC 546; assay: MIC by trace broth dilution method; assay type: cell-based; details: 16-18 h
Procedure: as §1

MRSA ATCC 43300 = details: cited from earlier work
mice red blood cells = assay: Hemolysis assay; assay type: cell-based, ICR mice; details: concentration of 1-256 μg/mL; 37° C., 1 h
Procedure: The freeze-dried powder of antimicrobial peptide ID13 obtained in Example 6 was used for the test. The antimicrobial peptide ID13 was dissolved in sterile physiological saline to prepare a stock solution of a concentration of 512 μg/mL, and diluted with a 2-fold ratio to a final concentration of 2 μg/mL. The blood from the eyeballs of 6-week-old SPF female ICR mice was taken and collected with a heparin sodium anticoagulation tube. The collected blood was centrifuged at 4° C., 1500 rpm for 10 min. The red blood cells were washed three times with 10 mM PBS (pH 7.3) until the supernatant was colorless and transparent, and an 8% red blood cell suspension was prepared. 100 μL of the red blood cell suspension and antimicrobial peptide ID13 solution were added to 96-well plate, incubated at 37° C. for 1 h, and centrifuged at 1500 rpm for 5 min. The resulted supernatant was transferred to ELISA plate to detect the UV absorbance at 540 nm. Values of 0% and 100% hemolysis control tests were set up with physiological saline and 0.1% TRITON X-100 detergent, respectively. The formula for calculating the degree of hemolysis was as follows (Jung, Park, etc., 2007): Hemolysis (%)=[(Abs540 nm antimicrobial peptide ID13—Abs540 nm physiological saline)/(Abs540 nm 0.1% TRITON X-100 detergent—Abs540 nm physiological saline)]×100%.

[4] = system: Streptococcus pneumoniae CVCC 2350; assay: MIC by trace broth dilution method; assay type: cell-based
Procedure: as §1

[5] = system: Staphylococcus Epidermidis ATCC 12228; assay: MIC by trace broth dilution method; assay type: cell-based
Procedure: as §1

RAW264.7 cells = assay: Cytotoxicity assay (MTT); assay type: cell-based; details: 256 μg/mL, 24 hours incubation
Procedure: The RAW264.7 cells were cultured in DMEM complete medium with 37° C., 5% CO2 and saturated humidity conditions. The cells were pipetted and re-suspended in DMEM complete medium. Then, the cells were seeded in a 96-well plate at a density of 2.5×10^5 cells/mL, 100 μL per well, and 3 replicates were set. After 24 h, the medium was removed, and 100 μL of 1, 2, 4, 8, 16, 32, 64, 128, and 256 μg/mL ID13 were added to each well according to a concentration gradient. Control wells were added with the same amount of PBS solution. After 24 hours incubation, the medium was removed; the wells were washed twice with PBS, and 100 μL of MTT at a concentration of 5 mg/mL was added to each well (which were operated in dark). The 96-well plate was moved to an incubator and continued to be incubated for 4 h. After discarding the MTT solution, 150 μL DMSO was added into each well, and then the plate was cultured with shaking for 10 minutes. When crystals at the well bottom were completely dissolved, the absorbance values were measured at a wavelength of 570 nm. The cell survival rate was calculated according to the following formula: survival rate (%)=OD value of the treatment group/OD value of the control group×100% (Jiao et al., 2015).

Gram-positive bacteria = assay: Antimicrobial activity (MIC) summary over tested strains; assay type: cell-based; details: range over the tested Gram-positive strains
Procedure: as §1

**Q.** Which results are given for `CC[C@H](C)[C@@H]1NC(=O)[C@@H]2CSSC[C@@H](C(=O)N[C@@H](CCCNC(=N)N)C(=O)N[C@@H](CCCCN)C(=O)O)NC(=O)[C@H](CC(N)=O)NC(=O)[C@@H]3CSSC[C@H](NC(=O)[C@H](C)NC(=O)[C@H](C)NC(=O)[C@H](Cc4c[nH]cn4)NC(=O)CNC(=O)[C@H](C(C)C)NC(=O)[C@H](CCCCN)NC(=O)[C@H](Cc4ccccc4)NC(=O)[C@@H]4CCCN4C(=O)[C@H](CO)NC(=O)[C@H](CC(C)C)NC(=O)[C@H](CC(C)C)NC(=O)[C@H](CC(=O)O)NC(=O)[C@@H](NC(=O)[C@@H](NC(=O)[C@H](C)N)[C@@H](C)O)CSSC[C@H](NC(=O)[C@H](Cc4c[nH]c5ccccc45)NC(=O)CNC(=O)CNC(=O)[C@H](CCCNC(=N)N)NC(=O)[C@H](CCCCN)NC(=O)CNC(=O)[C@H](CCCNC(=N)N)NC(=O)[C@H](C)NC1=O)C(=O)N[C@@H](CC(=O)O)C(=O)N[C@@H](CCCCN)C(=O)N[C@@H](CCCNC(=N)N)C(=O)N[C@@H](C)C(=O)N[C@@H](C(C)C)C(=O)N3)C(=O)N[C@@H](C)C(=O)N[C@@H](C)C(=O)N[C@@H](Cc1c[nH]cn1)C(=O)N2` [DLP4] (H-ATCDLLSPFKVGHAACAAHCIARGKRGGWCDKRAVCNCRK-OH; disulfide 3-30, 16-36, 20-38; N-terminus and C-terminus assumed)?
**A.** MIC ([1]; 37° C.): 16 µg/mL; MIC ([2]; 37° C.): 16 µg/mL; MIC ([3]; 37° C.): 16 µg/mL; drug tolerance such as increased MIC (MRSA ATCC 43300; MRSA ATCC 43300 continuously passaged for 30 days under the effective dose): no drug tolerance

**Q.** Which “increase of MIC value” (MRSA ATCC 43300; MRSA ATCC 43300 continuously passaged for 30 days) does the source give for `CO/N=C(\C(=O)N[C@@H]1C(=O)N2C(C(=O)O)=C(CSc3nc(=O)c(=O)[nH]n3C)CS[C@H]12)c1csc(N)n1` [ceftriaxone] here?
**A.** 256 times

**Q.** For `CC[C@H](C)[C@@H]1NC(=O)[C@@H]2CSSC[C@@H](C(=O)N[C@@H](CCCNC(=N)N)C(=O)N[C@@H](CCCCN)C(=O)O)NC(=O)[C@H](CC(N)=O)NC(=O)[C@@H]3CSSC[C@H](NC(=O)[C@H](C)NC(=O)[C@H](C)NC(=O)[C@H](Cc4c[nH]cn4)NC(=O)CNC(=O)[C@H](C(C)C)NC(=O)[C@H](CCCCN)NC(=O)[C@H](Cc4ccccc4)NC(=O)[C@@H]4CCCN4C(=O)[C@H](CO)NC(=O)[C@H](CC(C)C)NC(=O)[C@H](CC(C)C)NC(=O)[C@H](CC(=O)O)NC(=O)[C@@H](NC(=O)[C@@H](NC(=O)[C@H](C)N)[C@@H](C)O)CSSC[C@H](NC(=O)[C@H](Cc4c[nH]c5ccccc45)NC(=O)CNC(=O)CNC(=O)[C@H](CCCNC(=N)N)NC(=O)[C@H](CCCCN)NC(=O)CNC(=O)[C@H](CCCNC(=N)N)NC(=O)[C@H](C)NC1=O)C(=O)N[C@@H](CC(=O)O)C(=O)NCC(=O)N[C@@H](CCCNC(=N)N)C(=O)N[C@@H](C)C(=O)N[C@@H](C(C)C)C(=O)N3)C(=O)N[C@@H](C)C(=O)N[C@@H](C)C(=O)N[C@@H](Cc1c[nH]cn1)C(=O)N2` [ID13] (H-ATCDLLSPFKVGHAACAAHCIARGKRGGWCDGRAVCNCRK-OH; disulfide 3-30, 16-36, 20-38 (inferred); N-terminus and C-terminus assumed), which “hemolysis to mice red blood cells” value (mice red blood cells) is on record?
**A.** little hemolysis

**Q.** What about the MIC ([1]; 37° C.) of the same compound?
**A.** 4 µg/mL

**Q.** What about the MIC ([1]; 37° C., read-out: MIC) of the same compound?
**A.** 0.95 µM

**Q.** What about the MIC ([2]; 37° C.) of the same compound?
**A.** 4 µg/mL

**Q.** And the MIC ([2]; 37° C., read-out: MIC)?
**A.** 0.95 µM

**Q.** What about the MIC ([4]; Streptococcus pneumoniae CVCC 2350, 37° C., 16-18 h) of the same compound?
**A.** 0.95 μM and 4 μg/mL

**Q.** What about the MIC ([3]; 37° C.) of the same compound?
**A.** 4 µg/mL

**Q.** What about the MIC ([3]; 37° C., read-out: MIC) of the same compound?
**A.** 0.95 µM

**Q.** And the MIC ([5]; Staphylococcus Epidermidis ATCC 12228, 37° C., 16-18 h)?
**A.** 1.91 μM and 8 μg/mL

**Q.** What about the cell survival rate (RAW264.7 cells) of the same compound?
**A.** 72%

**Q.** And the “antimicrobial activity against Gram-positive bacteria (MIC range)” value (Gram-positive bacteria)?
**A.** 0.95 to 1.91 µM

**Q.** With `CN[C@H](CC(C)C)C(=O)N[C@H]1C(=O)N[C@@H](CC(N)=O)C(=O)N[C@H]2C(=O)N[C@H]3C(=O)N[C@H](C(=O)N[C@H](C(=O)O)c4cc(O)cc(O)c4-c4cc3ccc4O)[C@H](O)c3ccc(c(Cl)c3)Oc3cc2cc(c3O[C@@H]2O[C@H](CO)[C@@H](O)[C@H](O)[C@H]2O[C@H]2C[C@](C)(N)[C@H](O)[C@H](C)O2)Oc2ccc(cc2Cl)[C@H]1O` [Vancomycin] as the compound, how does the MIC ([1]; ATCC43300, 37° C., read-out: MIC) read?
**A.** 0.67 µM and 1 µg/mL

**Q.** And the MIC ([2]; CVCC3928, 37° C., read-out: MIC)?
**A.** 0.17 µM and 0.25 µg/mL

**Q.** And the MIC ([4]; Streptococcus pneumoniae, CVCC2350)?
**A.** 0.34 µM and 0.5 µg/mL

**Q.** And the MIC ([3]; CVCC546, 37° C., read-out: MIC)?
**A.** 0.67 µM and 1 µg/mL

**Q.** What about the MIC ([5]; Staphylococcus epidermidis, ATCC12228) of the same compound?
**A.** 0.67 µM and 1 µg/mL
